Measurements as given in patent US20140314854A1, “METHODS AND COMPOSITIONS FOR RNAi-BASED CANCER TREATMENT” (Silenseed Ltd., priority 2013, published 2014).

Key:
Panc1 cells [1] = type: cell-based, human
Procedure: FIG. 18. Chart showing viability of Panc1 cells. Vertical axis: viability as a percentage of the viability of mock-transfected cells, 72 hours following transfection with the indicated siRNA. Dotted line indicates 50% reduction in viability. For all the differences, p<0.05 relative to the mock-transfected cells.
The effect of siRNA-mediated down-regulation of EMT-related genes on viability of Panc1 cancer cells was measured as follows: siRNAs targeting the indicated genes, namely SLUG (SNAI2), SNAI1 TWIST, Zeb1, Zeb2, Goosecoid, and E12 (TCF3), were designed and synthetized by IDT-Syntezza, using 2 different siRNA's per target (Table 3). Panc1 cells were transfected with the siRNAs using Lipofectamine®. 72 hrs post-transfection, cell viability was tested by Methylene blue (MB) assay. Gemzar® was used as a positive control for cell killing.

K-ras mRNA = conditions: read-out: K-ras mRNA levels, half-maximal inhibitory concentration (IC50); Panc1 cells transfected; Real-Time PCR, HPRT and UBC endogenous controls
Procedure: Panc1 cells, human pancreatic carcinoma cells that carry the […] in the K-ras gene, were mock-transfected or transfected with siG12D or control scrambled siRNA (si-scr). The relative K-ras mRNA levels were assessed by Real-Time PCR, with Hypoxantine PhosphoRybosyl Transferase (HPRT) and Ubiquitin C (UBC) used as endogenous controls.

normal mice = assay: Toxicity study of LODER-driven siRNA in normal mice; type: in vivo; conditions: intraperitoneally injected
Procedure: (§1) To study the toxic potential of the LODER-driven siRNA, we compared the effect of the siG12D LODER (16, 32 and 64 μg siG12D/kg weight) to that of the empty LODER and to sham-operated or untreated animals. LODERs were implanted into the pancreas of normal mice and rats, both males and females of both species. In parallel, the same and higher doses of siG12D were intraperitoneally injected into normal mice and rats (16, 160 and 320 μg siG12D/kg weight). The duration of this study was 2 weeks in mice and 8 weeks in rats. […] Based on the lack of adverse reaction following siRNA treatment, the maximum dose of 0.32 mg siRNA/kg body weight was considered as not constituting an acute toxicity risk.

normal rats = assay: Toxicity study of LODER-driven siRNA in normal rats; type: in vivo; conditions: intraperitoneally injected
Procedure: as §1

PancO2 cell = PancO2 cell growth in vitro; type: cell-based, mouse
Akt = assay: Orthotopic Panc1-LUC tumors, Akt immunohistochemistry; type: in vivo, human; conditions: 39 days post-treatment, IH
Procedure: For this purpose, Panc1-LUC or Capan1-LUC cells were injected into the tail of the mouse pancreas via an incision. Tumor development was assessed by in vivo Luciferase activity. […] Two LODERs were stitched to the pancreatic tumor via a laparotomy.
Here, tumor tissues were tested from mice bearing pancreatic Panc1-LUC-derived tumors from 4 treatment groups: untreated, injected with siG12D or implanted with empty LODERs or siG12D LODERs. Thirty nine days post-treatment, we performed IH analysis of tumor tissues for Akt and ERK.

Panc1 cells [2] = assay: Migration assay (modified Boyden chamber); type: cell-based, human; conditions: transfected cells, relative to untreated cells
Panc-1 cells = assay: Scratch assay; type: cell-based, human; conditions: after 24 hours, light microscopy
Procedure: FIG. 7. siG12D reduces EMT in Panc1 cells. A. Migration assay. Panc-1 cells were transfected with siG12D or non-targeting control (scrambled) or were treated with TGFβ (positive control). The migration ability was assessed using a modified Boyden chamber assay. The percentage of migrated cells relative to untreated cells is presented. B. Scratch assay. Panc-1 cells were mock-transfected or transfected in vitro with scrambled siRNA or siG12D, then were seeded in 6 W plates. After 24 hours, the cells were reseeded in 24 W plates to form a confluent culture. One day after reseeding, the cells were scratched with a plastic tip. […]
FIG. 8. Light microscopy images of migration of siG12D-DDD treated cells in a scratch assay, showing the inhibitory effect of siG12D on cellular migration.
In order to study the effects of siG12D on the EMT process and its consequent increased cellular migration and motility, we conducted a series of experiments in which we examined different aspects of this process. We analyzed the migration characteristics of Panc1 cells following transfection with siG12D or scrambled siRNA, using the scratch and transwell-migration assays. TGF-β was used as a positive control. […] To test migration through a scratch assay. […]

Zeb1, Slug, E-Cadherin = assay: Expression of genes characteristic of EMT; type: cell-based, human; conditions: in vitro, normalized to the untreated cells
Excerpt: FIG. 9. Effect of the siG12DDDD on expression levels of metastasis-facilitating genes. Expression levels are normalized to the untreated cells.
Treatment of siG12D in vitro was followed by measurement of genes whose expression (high or low) is characteristic of EMT.

P-Erk = assay: Western blot of KRAS downstream effector P-Erk; type: cell-based, human; conditions: 36 hrs after transfection, normalized to β-actin
Excerpt: (§2) FIG. 19. Treatment with anti-k-ras siRNA reduces levels of downstream effector proteins. Panc1 cells were left untreated (u/t) or transiently transfected with siG12D, non-targeting scrambled siRNA (si-scr) or mock transfected. A. Shown are representative blots of KRAS, P-Erk, P-Akt, and β-actin. B. Quantitation of protein expression, expressed as average±S.E.M. Numbers were normalized to the level of β-actin, then the resulting number was normalized to the expression in scrambled siRNA-transfected cells, which was set as 100%. Student's t-test was used to calculate(p) compared to mock-transfected cells.
(§3) To confirm the specific action of siG12D on the K-ras signaling pathway, KRAS, level of activation of the KRAS downstream effectors ERK and Akt was measured following treatment with siG12D. […] 36 hrs after transfection, cells were lysed and relative levels of KRAS, P-Erk and P-Akt proteins were assessed by Western blot analysis. […]
(§4) Western blot assays were carried by homogenizing cells in lysis buffer A (0.25M sucrose, 20 mM Tris pH 7.6, 1.5 mM MgCl2, 10% glycerol, 1 mM EDTA and “cOmplete mini” protein inhibitor cocktail (Roche Diagnostics)), incubated on ice for 10 min, centrifuged at 12,000 rpm for 15 min at 4° C., and supernatants were collected. […] Results are expressed as ratio of protein of interest/β-actin to correct for amount of protein loaded in each sample.

P-Akt = assay: Western blot of KRAS downstream effector P-Akt; type: cell-based, human; conditions: 36 hrs after transfection, normalized to β-actin
Excerpt: as §2, §3, §4

Panc1 cells [3] = assay: Cell viability by Methylene Blue test, siRNA alone and with Gemzar; type: cell-based, human; conditions: 72 h; 1 hr of treatment with 10 μM Gemzar after transfection
Procedure: FIG. 15. Gemzar® enhances siG12D-DDD effect. Panc1 cells were transfected using Lipofectamine™ with unmodified and modified siG12D and a scrambled (non-targeting) siRNA control molecule or were mock transfected (no siRNA). Cell viability was assessed 72 hrs post-transfection by the Methylene Blue (MB) test. Additional groups were transfected as described above, followed by 1 hr of treatment with 10 μM Gemzar®. The numbers 1-4 in the last column relate to the percent of inhibition of cellular growth, wherein the inhibition seen with the unmodified siRNA was assigned the value of 100%. 4, 3, 2, and 1 refer respectively to 75-100%, 50-75%, 25-50%, and 0-25% of the inhibition seen with the unmodified siRNA.
Experimental procedure: Panc1 cells were transfected using Lipofectamine™ with unmodified and modified siG12D and a scrambled (non-targeting) siRNA control molecule or were mock transfected (no siRNA). Cell viability was assessed 72 hrs post-transfection by the Methylene Blue (MB) test. Additional groups were transfected as described above, followed by 1 hr of treatment with 10 μM Gemzar®. At the exemplary time point of 72 h, Gemzar® enhanced the effect of siG12D by nearly 10% (FIG. 15). […] Other time points, for example 48h, 72 h, 96 h and 120 h, may be utilized in additional studies.

With “TWIST-2: siRNA targeting TWIST; sense ggugugcguccagccguugdTdT, antisense caacggcuggacgcacaccdTdT; SEQ ID No's 108-109 (sense GGUGUGCGUCCAGCCGUUGTT; antisense CAACGGCUGGACGCACACCTT; DNA at 20, 21, other sugars and backbone not given here)” the reduction in viability (Panc1 cells [1]) was “greater than 50%”.
For “SNAI1-2: siRNA targeting SNAI1; sense augcacauccgaagccacadTdT, antisense uguggcuucggaugugcaudTdT; SEQ ID No's 124-125”, the reduction in viability (Panc1 cells [1]) was “greater than 50%”.
In the case of “TCF3-1: siRNA targeting E12 (TCF3); sense cuccuggacuucagcaugadTdT, antisense ucaugcugaaguccaggagdTdT; SEQ ID No's 131-132 (sense CUCCUGGACUUCAGCAUGATT; antisense UCAUGCUGAAGUCCAGGAGTT; DNA at 20, 21, other sugars and backbone not given here)”, the reduction in viability (Panc1 cells [1]) is reported as “greater than 50%”.
“Goosecoid-1: siRNA targeting Goosecoid; sense agcauguucagcaucgacadTdT, antisense ugucgaugcugaacaugcudTdT; SEQ ID No's 127-128 (sense AGCAUGUUCAGCAUCGACATT; antisense UGUCGAUGCUGAACAUGCUTT; DNA at 20, 21, other sugars and backbone not given here)” gave a reduction in viability (Panc1 cells [1]) of ~50%.
In the case of “siG12D: siRNA against K-ras G12D; sense GUUGGAGCUGAUGGCGUAGdTdT, antisense CUACGCCAUCAGCUCCAACdTdT (SEQ ID No: 41-42) (sense GUUGGAGCUGAUGGCGUAGTT; antisense CUACGCCAUCAGCUCCAACTT; DNA at 20, 21, other sugars and backbone not given here)”, the IC50 (K-ras mRNA) is reported as 0.067 nM, the “maximum dose considered as not constituting an acute toxicity risk” value (normal mice) is reported as 0.32 mg siRNA/kg body weight and the “maximum dose considered as not constituting an acute toxicity risk” value (normal rats) is reported as 0.32 mg siRNA/kg body weight. For the same molecule, the PancO2 cell growth (PancO2 cell) was “inhibited PancO2 cell growth to a similar extent as Panc1 cells”, the Akt phosphorylation (Akt) was “induced” and the “inhibition of Panc1 migration” value (Panc1 cells [2]) was “more than 30%”. The “migration in scratch assay” value (Panc-1 cells) was “barely migrated”, the “expression of epithelial genes (E-Cadherin)” value (Zeb1, Slug, E-Cadherin) was “augmented expression” and the “expression of mesenchymal genes (Zeb1 and Slug)” value (Zeb1, Slug, E-Cadherin) was “reduced expression”. For the same molecule, the reduction in viability (Panc1 cells [1]) was ~50%, the “level of P-Erk” value (P-Erk) was “decreased” and the “level of P-Akt” value (P-Akt) was “decreased”.
“SNAI2-2: siRNA targeting SLUG (SNAI2); sense cuggucaagaagcauuucadTdT, antisense ugaaaugcuucuugaccagdTdT; SEQ ID No's 104-105 (sense CUGGUCAAGAAGCAUUUCATT; antisense UGAAAUGCUUCUUGACCAGTT; DNA at 20, 21, other sugars and backbone not given here)” was tested, and the reduction in viability (Panc1 cells [1]) was ~50%.
In the case of “Zeb1-2: siRNA targeting Zeb1; sense cagguguaagcgcagaaagdTdT, antisense cuuucugcgcuuacaccugdTdT; SEQ ID No's 112-113 (sense CAGGUGUAAGCGCAGAAAGTT; antisense CUUUCUGCGCUUACACCUGTT; DNA at 20, 21, other sugars and backbone not given here)”, the reduction in viability (Panc1 cells [1]) is reported as ~50%.
In the case of `Nc1ccn([C@@H]2O[C@H](CO)[C@@H](O)C2(F)F)c(=O)n1` [Gemzar®, 2′,2′-difluorodeoxycytidine], the “enhancement of the effect of siG12D on cell viability” value (Panc1 cells [3]) is reported as ~10%.
